The values that follow come from PMC6874132, “Biosensors Show the Pharmacokinetics of S-Ketamine in the Endoplasmic Reticulum” (Frontiers in Cellular Neuroscience, 2019).

The conditions of series [1]: after which rapid antidepressant effects occur; ref Lester et al., 2012; Janssen Research and Development, 2019; cited from earlier work.
In series [2] the test system is iSketSnFR1 (AK2). In words: Dose-response of purified iSketSnFR1 (AK2) biosensor fluorescence. In kind it is biochemical. As to the method: (§1) A Tecan Spark M10 96-well fluorescence plate reader (equipped with appropriate filters) was used to measure resting and S-ketamine-induced fluorescence (F0 and ΔF, respectively). Bacterial lysates were tested with excitation at 485 nm and emission at 535 nm. Promising clones were amplified and sequenced.
(§2) Biosensors selected for further study were purified with the His6 sequence included in the bacterial expression vector (Shivange et al., [2019]). Proteins were purified by immobilization in phosphate-buffered saline (PBS), pH 7.4, and elution in an imidazole gradient (10–200 mM). Proteins were concentrated by centrifugation through a 30 kDa cut off column, and by dialysis against PBS. The dialyzed protein was quantified using a nanodrop spectrofluorometer, and 50 or (preferably) 100 nM was used in dose-response studies to characterize responses to various ligands. Dose-response relations for ligands were conducted with the plate reader. The pH-dependent dose-response studies with purified iSketSnFR constructs were performed using 3× PBS buffers.
(§3) We introduce a convenient metric to summarize progress in evolving increasingly sensitive fluorescent biosensors for drugs. The metric, the S-slope, is especially appropriate for low drug concentrations because it corresponds to the relationship between [drug] and ΔF at the beginning of the dose-response relation. We define the S-slope for use with intensity-based drug biosensors:
(§4) S−slope = Δ(F/F0)/(Δ[drug]).
(§5) We state the S-slope in units of μM^−1.
(§6) This article uses the S-slope for measurements on S-ketamine biosensors in bacterial lysates, with purified proteins, and expressed in cells. […] In this case, we calculated (as in Figure 2A below),

The subject of series [3] is iNicSnFR1, iNicSnFR2, and iNicSnFR3a, as well as 12 other biosensors in the series. Kind of series: Fluorescence test against iNicSnFR biosensors. It counts as biochemical. Particulars: at concentrations <100 μM. The protocol:
A Tecan Spark M10 96-well fluorescence plate reader (equipped with appropriate filters) was used to measure resting and S-ketamine-induced fluorescence (F0 and ΔF, respectively). Bacterial lysates were tested with excitation at 485 nm and emission at 535 nm. Promising clones were amplified and sequenced. The most sensitive construct in each round of SSM was used as a template for the next round of SSM.
We tested S-ketamine and R-ketamine (Figure 1) against iNicSnFR1, iNicSnFR2, and iNicSnFR3a, as well as against 12 other biosensors in the series that led to the iNicSnFRs (Shivange et al., [2019]).

Series [4] relates to iSketSnFR1_PM. Kind of series: Time-resolved fluorescence in iPSC-derived dopaminergic neurons transfected with iSketSnFR1_PM. In kind it is cell-based, human. Particulars: Figure 6C, dopaminergic neurons differentiated from iPSCs, average of five cells. From the text:
(§7) We constructed two variants of the iSKetSnFR1 and iSketSnFR2 biosensors for expression in mammalian cells. The plasma membrane (_PM) and endoplasmic reticulum (_ER) variants were constructed by a circular polymerase extension cloning procedure. For iSketSnFR1_PM and iSKetSnFR2_PM, we cloned the bacterial constructs into pCMV(MinDis), a variant of pDisplay (Invitrogen, Carlsbad, CA, USA) lacking the hemagglutinin tag (Marvin et al., [2013]). We modified the previous transmembrane domain (Shivange et al., [2019]) as follows. We replaced the terminal KKPR of the PDGF receptor (a putative ER retention motif) with KYLQKRRERRRQ (a p14 Golgi export motif) and ENANSFCYENEVAL (a putative Kir2.X ER export motif). […]
(§8) Fujifilm CDI^2 (formerly named Cellular Dynamics International, Madison WI, USA), furnished iCell DopaNeurons. […] The supplier has measured that 89% of the cells are positive for tyrosine hydroxylase by fluorescence-activated cell sorting. […]
(§9) We find that signals with the iSKetSnFR constructs have brightness similar to those of the previous iNicSnFR cpGFP-based biosensors for nicotine (Shivange et al., [2019]), but the dynamic range is somewhat lower for the iKetSnFRs. […] Fluorescence measurements at λex = 470 nm have been described (Shivange et al., [2019]). […] PM-directed constructs were measured with a region of interest (ROI) that included only the cell periphery. […]

Series [5] concerns AK1. Kind of series: S-ketamine dose-response of biosensor construct AK1. It counts as biochemical. To be noted: at 1 μM S-ketamine; Gly residue at position 357.
Text: Starting with the iNicSnFR biosensor constructs (Shivange et al., [2019]), we constructed and measured ~3,000 mutants, in iterative rounds of site-saturated mutagenesis (SSM). We utilized the Quikchange mutagenesis protocol (Agilent), including a mixture of three primers, creating 22 unique codons encoding the 20 canonical amino acids (Kille et al., [2013]). The 22-codon procedure yields an estimated >96% residue coverage for a collection of 96 randomly chosen clones.
A Tecan Spark M10 96-well fluorescence plate reader (equipped with appropriate filters) was used to measure resting and S-ketamine-induced fluorescence (F0 and ΔF, respectively). Bacterial lysates were tested with excitation at 485 nm and emission at 535 nm. Promising clones were amplified and sequenced. […]
Biosensors selected for further study were purified with the His6 sequence included in the bacterial expression vector (Shivange et al., [2019]). […] The dialyzed protein was quantified using a nanodrop spectrofluorometer, and 50 or (preferably) 100 nM was used in dose-response studies to characterize responses to various ligands. Dose-response relations for ligands were conducted with the plate reader. […]
as §6

In series [6] the test system is iSketSnFR1_ER. In words: Time-resolved fluorescence in iPSC-derived dopaminergic neurons transfected with iSketSnFR1_ER. In kind it is cell-based, human. To be noted: Figure 6C, dopaminergic neurons differentiated from iPSCs, average of five cells.
Text: as §7, §8, §9

Series [7] relates to iSketSnFR2_ER. Kind of series: Time-resolved fluorescence in Neuro2a cells transfected with iSketSnFR2_ER. In kind it is cell-based. From the text:
(§10) We constructed two variants of the iSKetSnFR1 and iSketSnFR2 biosensors for expression in mammalian cells. The plasma membrane (_PM) and endoplasmic reticulum (_ER) variants were constructed by a circular polymerase extension cloning procedure. For iSketSnFR1_PM and iSKetSnFR2_PM, we cloned the bacterial constructs into pCMV(MinDis), a variant of pDisplay (Invitrogen, Carlsbad, CA, USA) lacking the hemagglutinin tag (Marvin et al., [2013]). We modified the previous transmembrane domain (Shivange et al., [2019]) as follows. […]
(§11) We find that signals with the iSKetSnFR constructs have brightness similar to those of the previous iNicSnFR cpGFP-based biosensors for nicotine (Shivange et al., [2019]), but the dynamic range is somewhat lower for the iKetSnFRs. […] Fluorescence measurements at λex = 470 nm have been described (Shivange et al., [2019]). […] PM-directed constructs were measured with a region of interest (ROI) that included only the cell periphery.
(§12) Solutions were delivered from elevated reservoirs by gravity flow, through solenoid valves (Automate Scientific, Berkeley, CA, USA), then through tubing fed into a manifold, at a rate of 1–2 ml/min. […] As usual in fluorescence imaging experiments, we excluded data from the brightest cells, because these may have fluorescent impurities or aggregates that produce a rapidly bleaching baseline. […]

Series [8] has as its system iSketSnFR2 (AK8). Kind of series: Dose-response of purified iSketSnFR2 (AK8) biosensor fluorescence. In kind it is biochemical. The protocol:
as §1, §2, §3, §4, §5, §6

In series [9] the test system is iSketSnFR2_PM. In words: Time-resolved fluorescence in Neuro2a cells transfected with iSketSnFR2_PM. It counts as cell-based.
Text: as §10, §11, §12

The test system of series [10] is endoplasmic reticulum (ER). Kind of series: Subcellular pharmacokinetics: S-ketamine in the endoplasmic reticulum measured with ER- and PM-targeted biosensors. Particulars: Neuro2a cells and human dopaminergic neurons differentiated from iPSCs. In kind it is cell-based.
Text: as §10, §11, §12

Series [11] relates to iSketSnFR1_PM or iSketSnFR1_ER. Kind of series: Time-resolved fluorescence in Neuro2a cells transfected with iSketSnFR1 constructs. In kind it is cell-based. To be noted: 20 s pulses (Figure 4), read-out: half-maximal concentration of S-ketamine.
Text: as §10, §11, §12

Series [12] relates to iSketSnFR constructs. Kind of series: Activation of the iSketSnFR constructs by a permanently charged analog. It counts as biochemical. The protocol:
as §2
The permanently charged nicotine analog, N’-methylnicotinium, previously provided additional insights for the iNicSnFR family (Shivange et al., [2019]).

Where [13] appears, read: Figure 2B1, purified protein, pH 7.0, 3× PBS, Hill fit.
Where [14] appears, read: Figure 5C, sub-μM S-ketamine, linear fit, average of 10 cells.
Setting [15] is: [S-ketamine] <1 μM, mean ± SD, 25 total cells from two independent transfections.
[16] abbreviates: Figure 2B2, purified protein, pH 7.0, 3× PBS, Hill fit.

SMILES strings stand for the structures. Where “and” joins values, the source holds several entries; their conditions need not be identical. Equal entries are not always repeated.

Consider `CN[C@]1(c2ccccc2Cl)CCCCC1=O` [S-ketamine], for which the “peak blood plasma concentrations” value in series [1] was 0.2 to 1 µM. Further, the “S-Ketamine Dose-Response S-slope” value in series [2] (Figure 2A, purified protein) was 0.32 µM⁻¹; in [8] (Figure 2A, purified protein) it was 1.87 µM⁻¹ and 1.9 µM⁻¹. In addition, the values for the EC50 in series [2] (setting [13]), in [8] (setting [16]) and in series [11] were 10.7 ± 1.5 µM, 1.16 ± 0.6 µM and about 10 µM, respectively. For the same compound, the ΔFmax/F0 in series [2] (setting [13]) worked out at 3.4 ± 0.1; in [8] (setting [16]), 3.0 ± 0.3. Moreover, the “expected response ΔF/F0 in vitro” value in series [2] (to 1 μM S-ketamine, expected from S-slope) came to 0.32. For the same compound, the “fluorescence increase activated by ligand” value in series [3] is given as “no detectable fluorescence increase”. Further, the S-slope in series [4] was 0.099 µM⁻¹ and 0.1 µM⁻¹; in series [6], 0.111 µM⁻¹; in [7] (setting [14]), 0.26 µM⁻¹; in series [7] (setting [15]) it was 0.29 ± 0.04 µM⁻¹; in series [8] (Figure 7A, in solution, λEx = 400 nm, pH 7), -0.23 µM⁻¹; in series [9] (setting [14]), 0.49 µM⁻¹. This compound came in with a S-slope in series [9] (setting [15]) of 0.42 ± 0.14 µM⁻¹. In series [5], the ΔF/F0 was ~ 0.12. Also, in series [8] (in solution (abstract)), the “S-slope = delta(F/F0)/(delta[S-ketamine])” value stood at 1.9 µM⁻¹. Also, the “[S-slope] (magnitude)” value in series [8] (λex = 400 nm, purified protein, pH range 6 to 8.5 (Supplementary Figure S2)) is at most 0.3. The “time for entry into the ER after appearing in the external solution” value in series [10] is given as “within a few seconds”. In addition, in [10], the “time to leave the ER after removal from the extracellular solution” value is recorded as “within a few seconds”.
For `CN[C@@]1(c2ccccc2Cl)CCCCC1=O` [R-ketamine], the “concentrations giving detectable responses” value in series [8] was over 100 µM. The “S-slope lower than that of S-ketamine” value in series [8] (at iSketSnFR2) is given as “at least 100 fold”.
As for `C[N+](C)(C)[C@]1(c2ccccc2Cl)CCCCC1=O` [N,N-dimethyl-S-ketamine], the “activation of the iSketSnFR constructs” value in series [12] is “did not produce robust activation”.
